Where two headings read alike, the source gives them in different places. Values belong to the molecule of their own block, whether it stands above or below them.
Legend:
arginase [1] = test: arginase activity in internal anal sphincter
arginase [2] = conditions: intact cells; cited from earlier work
arginase [3] = test: arginase activity of murine macrophages (hydrolysis of L-arginine to L-ornithine); type: cell-based; conditions: unstimulated murine macrophages
From the text: Stimulation of murine macrophages with interferon-gamma and lipopolysaccharide (IFN-gamma+LPS) results in clear expression of an inducible NOS (iNOS) and to an increase in arginase activity.

arginase [4] = conditions: read-out: IC50 hydrolysis of L-arginine to L-ornithine; unstimulated murine macrophages (Tenu et al.); cited from earlier work
arginase [5] = conditions: IFN-gamma+LPS-stimulated macrophage; cited from earlier work
iNOS = iNOS (Mus musculus, UniProt P29477); conditions: cited from earlier work
IL-13 [6] = test: lung ARG1 mRNA expression after ovalbumin allergen challenge; type: in vivo, Balb/c mice; conditions: mouse lung
Protocol: Balb/c mice were immunized by an intraperitoneal (i.p.) injection of 10 μg of OVA (Sigma, St. Louis, Mo.) in 200 μl of PBS on day 0. On days 14 and 25 mice were anesthetized with a mixture of ketamine and xylazine (45 and 8 mg/kg, respectively) and challenged intratracheally with 50 μl of a 1.5% solution of OVA or an equivalent volume of PBS. Mice were injected i.p. either with 100 μl of PBS, hIgG (400 μg/ml) or sIL-13α2-Fc (400 μg/ml) on days 24, 25 and 27. Purification of hIgG was carried according to Urban et al., Immunity 8(2): […], 1998. Lungs were collected and snap frozen for RNA isolation on day 28.
To identify changes in mRNA concentration dependent on IL-13 mediated signal transduction, two of the OVA-challenged mice were treated with three intraperitoneal injections of the soluble IL-13 receptor fusion protein, sIL-13Rα2-Fc, prior to and during the course of the allergic challenge. As control for the Fc-moiety of the receptor fusion protein, two of the OVA-challenged mice were similarly treated with intraperitoneal administration of hIgG. […]
Balb/C-treated and untreated mice were sensitized to OVA, treated with PBS, rIL-13 or sIL13Rα2.Fc as described in FIG. 1. Total lung RNA was isolated and analyzed for ARG1 expression as described in Example 2. The mRNA frequency is expressed as parts per million.

IL-13 [7] = test: OVA-challenge asthma model: mucus production and airway hyperresponsiveness; type: in vivo, mouse; conditions: FIG. 12 legend
From the text: It is generally accepted that allergic asthma is initiated by an inappropriate inflammatory reaction to airborne allergens. […] One murine model of asthma involves sensitization of the animal to ovalbumin (OVA) followed by intratracheal delivery of the OVA challenge. […] The cytokine IL-13, expressed by basophils, mast cells, activated T cells and NK cells, plays a central role in the inflammatory response to OVA in mouse lungs. […] Thus, IL-13 mediated signaling is sufficient to elicit all four asthma-related pathophysiological phenotypes and is required for the hypersecretion of mucous and induced AHR in the mouse model.
FIG. 12 is a graphical representation showing that ARG1 mRNA expression increases following direct pulmonary instillation of rIL-13 or intratracheal Ovalbumin allergen challenge. Blockade of IL-13 signaling by administration of sIL13Rα2.Fc inhibits 67% of induced Arg1 mRNA expression. Blockade of IL-13 using the soluble receptor sIL13Rα2.Fc inhibits the allergen induced mucus production and airway hyperresponsiveness (AHR).

IL-13 [8] = conditions: mouse model, background; cited from earlier work

potency relative to L-NOHA in inhibiting arginase activity (arginase [1]): approximately 250 times
Molecule: N[C@@H](CCCCB(O)O)C(=O)O [ABH, 2(S)-amino-6-boronohexanoic acid]

Molecule: NCCC[C@](N)(C(=O)O)C(F)F [DFMO, α-difluoromethylornithine]
effect on the flux of L-arginine through arginase (arginase [2]): inhibitive effect

Molecule: N=C(NO)NCC[C@H](N)C(=O)O [nor-NOHA, N(omega)-hydroxy-L-nor-arginine]
potency relative to L-NOHA (arginase [3]): about 40 fold | IC50 (arginase [4]): 12 µM | IC50 (arginase [5]): 10 µM | substrate or inhibitor for iNOS (iNOS): neither a substrate nor an inhibitor

B1: sIL13Rα2.Fc: soluble IL-13 receptor fusion protein, a soluble IL-13 antagonist (protein)
chain: DTEIKVNPPQDFEIVDPGYLGYLYLQWQPPLSLDHFKECTVEYELKYRNIGSETWKTIITKNLHYKDGFDLNKGIEAKIHTLLPWQCTNGSEVQSSWAETTYWISPQGIPETKVQDMDCVYYNWQYLLCSWKPGIGVLLDTNYNLFYWYEGLDHALQCVDYIKADGQNIGCRFPYLEASDYKDFYICVNGSSENKPIRSSYFTFQLQNIVKPLPPVYLTFTRESSCEIKLKWSIPLGPIPARCFDYEIEIREDDTTLVTATVENETYTLKTTNETRQLCFVVRSKVNIYCSDDGIWSEWSDKQCWEGEDLSKKTLLR
modifications: left off: a dimerising Fc or GST
notes: soluble IL-13 receptor fusion protein, a soluble IL-13 antagonist
inhibition of induced Arg1 mRNA expression (IL-13 [6]): 67% | allergen induced mucus production and airway hyperresponsiveness (AHR) (IL-13 [7]): inhibits | OVA-challenge induced goblet cell mucus synthesis and AHR to acetylcholine (IL-13 [8]): completely blocked
